Measurements from patent US12180226B2, “Spirotricycle RIPK1 inhibitors and methods of uses thereof” (Merck Sharp & Dohme LLC, priority 2021, dated 2024).
Where a name gives a salt, the structure may show the parent alone.

Target: RIPK1 (recombinant GST-RIPK1 kinase domain, residues 1-327) (Homo sapiens (Human), UniProt Q13546)
Assay: RIPK1-ADP-Glo Enzymatic Assay
Format: biochemical
Settings: ADP-Glo; 25 nM GST-RIPK1, 300 μM ATP; assay lower limit ~25 nM; read-out: RIPK1 V0 Ec50
How it was run: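 GST-tagged kinase domain (residues 1-327, Sf21-expressed), 25 nM, pre-incubated 30 min with compound at ambient temperature, then reacted 150 min with 300 μM ATP and 3 μM dephosphorylated MBP in HEPES pH 7.3 buffer. ADP measured by ADP-Glo luminescence; EC50 from ten-point titration (top 100000 nM), four-parameter fit.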

RIPK1 (recombinant GST-RIPK1 kinase domain, residues 1-327), sequence (Q13546 1-327): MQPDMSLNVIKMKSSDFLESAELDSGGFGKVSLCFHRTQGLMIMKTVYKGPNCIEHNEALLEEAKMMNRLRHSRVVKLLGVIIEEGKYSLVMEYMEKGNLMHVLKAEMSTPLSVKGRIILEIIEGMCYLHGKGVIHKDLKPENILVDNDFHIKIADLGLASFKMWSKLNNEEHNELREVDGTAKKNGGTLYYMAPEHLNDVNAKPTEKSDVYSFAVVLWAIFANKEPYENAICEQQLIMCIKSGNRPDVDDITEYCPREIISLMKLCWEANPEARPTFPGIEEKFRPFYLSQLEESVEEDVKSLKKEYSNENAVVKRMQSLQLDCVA

Row | SMILES | EC50 [nM]
1 | COc1cc(C(=O)N2CCC3(CC2)O[C@@H]2CC[C@@H](c4ccccc4)N2C3=O)ccc1F [Example 6.158, (5′S,7a′R)-1-(4-fluoro-3-methoxybenzene-1-carbonyl)-5′-phenyl-tetrahydro-3′H-spiro [piperidine-4,2′-pyrrolo[2,1-b][1,3]oxazol]-3′-one] | < 25
2 | O=C(c1cc(F)ccc1F)N1CCC2(CC1)O[C@@H]1CC[C@@H](c3cc(F)cc(F)c3)N1C2=O [Example 5.1, (5′S,7a′R)-1-(2,5-Difluorobenzoyl)-5′-(3,5-difluorophenyl)tetrahydro-3′H-spiro[piperidine-4,2′-pyrrolo[2,1-b]oxazol]-3′-one] | < 25
3 | O=C(c1nc(N2CCC3(CC2)O[C@@H]2CC[C@@H](c4cc(F)cc(F)c4)N2C3=O)ncc1F)N1CC(C(F)F)C1 [Example 7.8, (5′S,7a′R)-1-{4-[3-(difluoromethyl)azetidine-1-carbonyl]-5-fluoropyrimidin-2-yl}-5′-(3,5-difluorophenyl)tetrahydro-3′H-spiro[piperidine-4,2′-pyrrolo[2,1-b][1,3]oxazol]-3′-one] | < 25
4 | O=C1N2[C@@H](CC[C@H]2c2ccccc2F)OC12CCN(c1ccnc3c(F)cnn13)CC2 [Example 4.102, (5′S,7a′R)-5′-(2-fluorophenyl)-1-(3-fluoropyrazolo[1,5-a]pyrimidin-7-yl)tetrahydro-3′H-spiro[piperidine-4,2′-pyrrolo[2,1-b]oxazol]-3′-one] | < 25
5 | N#Cc1ccc(N2CCC3(CC2)O[C@@H]2CC[C@@H](c4ccccc4)N2C3=O)n2ncc(Br)c12 [Example 4.183, 3-bromo-7-[(5′S,7a′R)-3′-oxo-5′-phenyltetrahydro-1H,3′H-spiro[piperidine-4,2′-pyrrolo[2,1-b] [1,3]oxazol]-1-yl]pyrazolo[1,5-a] pyridine-4-carbonitrile] | < 25
6 | O=C(c1nc(C2CC2)no1)N1CCC2(CC1)O[C@@H]1CC[C@@H](c3cc(F)cc(F)c3)N1C2=O [Example 6.35] | 89.7
7 | Cc1cc(C#N)cnc1N1CCC2(CC1)O[C@@H]1CC[C@@H](c3cc(F)cc(F)c3)N1C2=O [Example 4.47, 6-[(5′S,7a′R)-5′-(3,5-difluorophenyl)-3′-oxotetrahydro-1H,3′H-spiro[piperidine-4,2′-pyrrolo[2,1-b] [1,3]oxazol]-1-yl]-5-methylpyridine-3-carbonitrile] | < 25
8 | O=C1N2[C@@H](CC[C@H]2c2ccccc2)OC12CCN(c1cc(CF)ncn1)CC2 [Example 4.203, (5′S,7a′R)-1-[6-(fluoromethyl)pyrimidin-4-yl]-5′-phenyltetrahydro-3′H-spiro[piperidine-4,2′-pyrrolo[2,1-b] [1,3]oxazol]-3′-one] | 48
9 | O=C1N2[C@@H](CC[C@H]2c2ccccc2)OC12CN(c1ccc(C3CCC3)c3ccnn13)C2 [Example 18.3, (5′S,7a′R)-1-(4-cyclobutylpyrazolo[1,5-a]pyridin-7-yl)-5′-phenyltetrahydro-3′H-spiro[azetidine-3,2′-pyrrolo[2,1-b][1,3]oxazol]-3′-one] | < 25
10 | O=C1N2[C@H](CC[C@H]2c2cccc(F)c2)OC12CCN(c1ccnc3c(F)cnn13)CC2 [Example 4.15, (5′S,7a′S)-5′-(3-fluorophenyl)-1-(3-fluoropyrazolo[1,5-a]pyrimidin-7-yl)tetrahydro-3′H-spiro[piperidine-4,2′-pyrrolo[2,1-b] [1,3]oxazol]-3′-one] | < 25
11 | O=C(c1ccccc1)N1CCC2(CC1)SC1CC[C@@H](c3cc(F)cc(F)c3)N1C2=O (stereo partly drawn) [Example 1.22, (5′S)-1-benzoyl-5′-(3,5-difluorophenyl)tetrahydro-3′H-spiro[piperidine-4,2′-pyrrolo[2,1-b]thiazol]-3′-one] | < 25
12 | CC(C)NC(=O)c1nc(N2CCC3(CC2)O[C@@H]2CC[C@@H](c4cc(F)cc(F)c4)N2C3=O)ncc1F [Example 7.14, 2-[(5′S,7a′R)-5′-(3,5-difluorophenyl)-3′-oxotetrahydro-1H,3′H-spiro[piperidine-4,2′-pyrrolo[2,1-b][1,3]oxazol]-1-yl]-5-fluoro-N-(propan-2-yl)pyrimidine-4-carboxamide] | 69.8
13 | CC1CN(c2cc(C#N)ncn2)CCC12O[C@@H]1CC[C@@H](c3ccccc3)N1C2=O (stereo partly drawn) [Example 4.234, 6-[(4R,5′S,7a′R)-3-methyl-3′-oxo-5′-phenyltetrahydro-1H,3′H-spiro[piperidine-4,2′-pyrrolo[2,1-b] [1,3]oxazol]-1-yl]pyrimidine-4-carbonitrile] | 56.5
14 | O=C1N2[C@@H](CC[C@H]2c2cc(F)cc(F)c2)OC12CCN(c1ccnc3ccnn13)CC2 [Example 4.6, (5′S,7a′R)-5′-(3,5-difluorophenyl)-1-(pyrazolo[1,5-a]pyrimidin-7-yl)tetrahydro-3′H-spiro[piperidine-4,2′-pyrrolo[2,1-b] [1,3]oxazol]-3′-one] | < 25
15 | CC(C)Oc1cc(N2CCC3(CC2)O[C@@H]2CC[C@@H](c4cc(F)cc(F)c4)N2C3=O)ncc1C#N [Example 4.41, 6-[(5′S,7a′R)-5′-(3,5-difluorophenyl)-3′-oxotetrahydro-1H,3′H-spiro[piperidine-4,2′-pyrrolo[2,1-b] [1,3]oxazol]-1-yl]-4-[(propan-2-yl)oxy]pyridine-3-carbonitrile] | < 25
16 | O=C1N2[C@@H](CC[C@H]2c2cncc(F)c2)OC12CCN(c1ccnc3c(F)cnn13)CC2 [Example 4.84, (5′S,7a′R)-1-(3-fluoropyrazolo[1,5-a]pyrimidin-7-yl)-5′-(5-fluoropyridin-3-yl)tetrahydro-3′H-spiro[piperidine-4,2′-pyrrolo[2,1-b]oxazol]-3′-one, TFA salt] | 29.3
17 | N#Cc1ccnc(N2CCC3(CC2)O[C@@H]2CC[C@@H](c4cc(F)cc(F)c4)N2C3=O)n1 [Example 4.12, 2-[(5′S,7a′R)-5′-(3,5-difluorophenyl)-3′-oxotetrahydro-1H,3′H-spiro[piperidine-4,2′-pyrrolo[2,1-b] [1,3]oxazol]-1-yl]pyrimidine-4-carbonitrile] | < 25
18 | CCOc1cccc(C(=O)N2CCC3(CC2)O[C@@H]2CC[C@@H](c4cc(F)cc(F)c4)N2C3=O)n1 [Example 6.83, (5′S,7a′R)-5′-(3,5-difluorophenyl)-1-(6-ethoxypyridine-2-carbonyl)tetrahydro-3′H-spiro[piperidine-4,2′-pyrrolo[2,1-b] [1,3]oxazol]-3′-one] | 31.8
19 | NC(=O)c1cc(N2CCC3(CC2)O[C@@H]2CC[C@@H](c4cc(F)cc(F)c4)N2C3=O)ncn1 [Example 4.185, 6-[(5′S,7a′R)-5′-(3,5-difluorophenyl)-3′-oxotetrahydro-1H,3′H-spiro[piperidine-4,2′-pyrrolo[2,1-b] [1,3]oxazol]-1-yl]pyrimidine-4-carboxamide] | 83
20 | Cn1ccc(C(=O)N2CCC3(CC2)O[C@@H]2CC[C@@H](c4cc(F)cc(F)c4)N2C3=O)n1 [Example 5.39, (5′S,7a′R)-5′-(3,5-difluoro-phenyl)-1-(1-methyl-1H-pyrazole-3-carbonyl)tetra-hydro-3′H-spiro[piperi-dine-4,2′-pyrrolo[2,1-b]oxazol]-3′-one] | 172
21 | O=C1N2[C@@H](CC[C@H]2c2ccccc2)OC12CCN(c1ccnc3c(F)cnn13)CC2 [Example 4.1, (5′S,7a′R)-1-(3-fluoropyrazolo[1,5-a]pyrimidin-7-yl)-5′-phenyltetrahydro-3′H-spiro[piperidine-4,2′-pyrrolo[2,1-b]oxazol]-3′-one] | < 25
22 | O=C1N2[C@@H](CC[C@H]2c2ccccc2)OC12CCN(c1cc(C(F)(F)F)ncn1)CC2 [Example 4.33, (5′S,7a′R)-5′-phenyl-1-[6-(trifluoromethyl)pyrimidin-4-yl]tetrahydro-3′H-spiro[piperidine-4,2′-pyrrolo[2,1-b] [1,3]oxazol]-3′-one] | 50
23 | O=C1N2[C@@H](CC[C@H]2c2cc(F)cc(F)c2)OC12CCN(c1cncc3ncnn13)CC2 [Example 13.4, (5′S,7a′R)-1-([1,2,4]triazolo[1,5-a]pyrazin-5-yl)-5′-(3,5-difluorophenyl)tetrahydro-3′H-spiro[piperidine-4,2′-pyrrolo[2,1-b]oxazol]-3′-one, TFA salt] | 56
24 | CCOc1cccc(C(=O)N2CCC3(CC2)O[C@@H]2CC[C@@H](c4cccc(F)c4)N2C3=O)c1 [Example 6.121, (5′S,7a′R)-1-(3-ethoxy-benzene-1-carbonyl)-5′-(3-fluorophenyl)-tetrahydro-3′H-spiro [piperidine-4,2′-pyrrolo[2,1-b][1,3]oxazol]-3′-one] | < 25
25 | O=C(c1ccccc1)N1CCC2(O[C@@H]3CC[C@@H](c4ccccc4)N3C2=O)C(F)C1 (single isomer, unassigned) [Example 2.2, (3[R or S],4[S or R], 5′S,7a′R)-1-benzoyl-3-fluoro-5′-phenyltetrahydro-3′H-spiro[piperidine-4,2′-pyrrolo[2,1-b]oxazol]-3′-one] | < 25
26 | N#Cc1ccc(N2CCC3(CC2)O[C@@H]2CC[C@@H](c4cccc(F)c4)N2C3=O)n2ncnc12 [Example 4.259, 5-[(5′S,7a′R)-5′-(3-fluorophenyl)-3′-oxotetrahydro-1H,3′H-spiro[piperidine-4,2′-pyrrolo[2,1-b] [1,3]oxazol]-1-yl][1,2,4]triazolo[1,5-a] pyridine-8-carbonitrile] | < 25
27 | Cc1cccc(C(=O)N2CCC3(CC2)O[C@@H]2CC[C@@H](c4cc(F)cc(F)c4)N2C3=O)c1F [Example 6.8, (5′S,7a′R)-5′-(3,5-difluorophenyl)-1-(2-fluoro-3-methyl-benzene-1-carbonyl) tetrahydro-3′H-spiro [piperidine-4,2′-pyrrolo[2,1-b][1,3]oxazol]-3′-one] | < 25
28 | O=C1N2[C@@H](CC[C@H]2c2ccccc2)OC12CCN(c1cc(-n3cccn3)ncn1)CC2 [Example 4.174, (5′S,7a′R)-5′-phenyl-1-[6-(1H-pyrazol-1-yl)pyrimidin-4-yl]tetrahydro-3′H-spiro[piperidine-4,2′-pyrrolo[2,1-b] [1,3]oxazol]-3′-one] | < 25
